Laboratory results published in patent US20220289816A1, “IMMUNOTHERAPY WITH B*07 RESTRICTED PEPTIDES AND COMBINATION OF PEPTIDES AGAINST CANCERS AND RELATED METHODS” (Immatics Biotechnologies GmbH, priority 2018, published 2022).

Key:
CD8+ T cells = test: In vitro immunogenicity: in vitro T-cell priming assay with aAPCs loaded with peptide/MHC complexes and anti-CD28 antibody, pMHC multimer readout; type: cell-based, human; conditions: pMHC multimer readout after priming of CD8+ T cells
Description: In order to obtain information regarding the immunogenicity of the TUMAPs of the present invention, the inventors performed investigations using an in vitro T-cell priming assay based on repeated stimulations of CD8+ T cells with artificial antigen presenting cells (aAPCs) loaded with peptide/MHC complexes and anti-CD28 antibody.
In order to perform in vitro stimulations by artificial antigen presenting cells loaded with peptide-MHC complex (pMHC) and anti-CD28 antibody, the inventors first isolated CD8+ T cells from fresh HLA-B*07 leukapheresis products via positive selection using CD8 microbeads (Miltenyi Biotec, Bergisch-Gladbach, Germany) of healthy donors obtained from the University clinics Mannheim, Germany, after informed consent.
PBMCs and isolated CD8+ lymphocytes were incubated in T-cell medium (TCM) until use consisting of RPMI-Glutamax (Invitrogen, Karlsruhe, Germany) supplemented with 10% heat inactivated human AB serum (PAN-Biotech, Aidenbach, Germany), 100 U/ml Penicillin/100 μg/ml Streptomycin (Cambrex, Cologne, Germany), 1 mM sodium pyruvate (CC Pro, Oberdorla, Germany), 20 μg/ml Gentamycin (Cambrex). 2.5 ng/ml IL-7 (PromoCell, Heidelberg, Germany) and 10 U/ml IL-2 (Novartis Pharma, Nürnberg, Germany) were also added to the TCM at this step.
Generation of pMHC/anti-CD28 coated beads, T-cell stimulations and readout was performed in a highly defined in vitro system using four different pMHC molecules per stimulation condition and 8 different pMHC molecules per readout condition.
The purified co-stimulatory mouse IgG2a anti human CD28 Ab 9.3 (Jung et al., 1987) was chemically biotinylated using Sulfo-N-hydroxysuccinimidobiotin as recommended by the manufacturer (Perbio, Bonn, Germany). Beads used were 5.6 μm diameter streptavidin coated polystyrene particles (Bangs Laboratories, Illinois, USA).
800.000 beads/200 μl were coated in 96-well plates in the presence of 4×12.5 ng different biotin-pMHC, washed and 600 ng biotin anti-CD28 were added subsequently in a volume of 200 μl. Stimulations were initiated in 96-well plates by co-incubating 1×10^6 CD8+ T cells with 2×10^5 washed coated beads in 200 μl TCM supplemented with 5 ng/ml IL-12 (PromoCell) for 3 days at 37° C. Half of the medium was then exchanged by fresh TCM supplemented with 80 U/ml IL-2 and incubating was continued for four days at 37° C. This stimulation cycle was performed for a total of three times. For the pMHC multimer readout using 8 different pMHC molecules per condition, a two-dimensional combinatorial coding approach was used as previously described (Andersen et al., 2012) with minor modifications encompassing coupling to five different fluorochromes. Finally, multimeric analyses were performed by staining the cells with Live/dead near IR dye (Invitrogen, Karlsruhe, Germany), CD8-FITC antibody clone SK1 (BD, Heidelberg, Germany) and fluorescent pMHC multimers. For analysis, a BD LSRII SORP cytometer equipped with appropriate lasers and filters was used. Peptide specific cells were calculated as percentage of total CD8+ cells. Evaluation of multimeric analysis was done using the FlowJo software (Tree Star, Oregon, USA). In vitro priming of specific multimer+CD8+ lymphocytes was detected by comparing to negative control stimulations.

HLA-B*07 = HLA-B*07 (Homo sapiens, UniProt P01889); test: MHC binding assay (UV-ligand exchange, ELISA of stabilized MHC complexes); conditions: peptide exchange yield on HLA-B*07, UV-ligand exchange
Outline: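 Peptide–MHC complexes were made by UV-ligand exchange, in which a UV-cleavable peptide is replaced by the test peptide. Exchange yield was measured by ELISA of stabilized complexes on streptavidin-coated plates, using HRP anti-β2m detection (1 h, 37 °C), TMB substrate and absorbance at 450 nm.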

Peptide exchange (HLA-B*07)	Substance	Wells positive [%] (CD8+ T cells; Table 10a)	Wells positive [%] (CD8+ T cells; Table 10b)
–	391 (APRPASSL; listed as Homo sapiens) [compound 391]	+ (<20% = +)	–
–	407 (FPRLVGPDF; listed as Homo sapiens) [compound 407]	+++ (50%-69% = +++)	–
++++ (>75% = ++++)	1 (RPRSLQCVSL; listed as Homo sapiens) [compound 1]	–	+ (<20% = +)
–	410 (SPRSWIQVQI; listed as Homo sapiens) [compound 410]	+ (<20% = +)	–
++++ (>75% = ++++)	12 (LPNTGRIGQLL; listed as Homo sapiens) [compound 12]	–	++ (20%-49% = ++)
–	389 (APLPRPGAVL; listed as Homo sapiens) [compound 389]	++ (20%-49% = ++)	–
++++ (>75% = ++++)	56 (LPALLRSGLTL; listed as Homo sapiens) [compound 56]	–	+++ (50%-69% = +++)
–	430 (RPRALRDLQLL; listed as Homo sapiens) [compound 430]	+++ (50%-69% = +++)	–
–	443 (VPDGVSKVL; listed as Homo sapiens) [compound 443]	+++ (50%-69% = +++)	–
–	392 (GPQPWHAAL; listed as Homo sapiens) [compound 392]	++ (20%-49% = ++)	–
–	419 (SPMWHVQQL; listed as Homo sapiens) [compound 419]	++++ (>=70% = ++++)	–
–	406 (LPDGSRVEL; listed as Homo sapiens) [compound 406]	++++ (>=70% = ++++)	–
–	429 (RPRALRDLQL; listed as Homo sapiens) [compound 429]	++ (20%-49% = ++)	–
++++ (>75% = ++++)	364 (KPRTPFTTAQL; listed as Homo sapiens) [compound 364]	–	+ (<20% = +)
–	433 (IPEPSAQQL; listed as Homo sapiens) [compound 433]	+ (<20% = +)	–
–	396 (VPDVAQFVL; listed as Homo sapiens) [compound 396]	++ (20%-49% = ++)	–
++++ (>75% = ++++)	38 (RPSFPNLTSF; listed as Homo sapiens) [compound 38]	–	+ (<20% = +)
–	399 (NPFYPEVEL; listed as Homo sapiens) [compound 399]	+ (<20% = +)	–
++++ (>75% = ++++)	9 (RPDSRLLEL; listed as Homo sapiens) [compound 9]	–	+++ (50%-69% = +++)
–	423 (SPRVYWLGL; listed as Homo sapiens) [compound 423]	++++ (>=70% = ++++)	–
++++ (>75% = ++++)	361 (SPYGSDRLVQL; listed as Homo sapiens) [compound 361]	–	+ (<20% = +)
–	427 (VPSSRILQL; listed as Homo sapiens) [compound 427]	+++ (50%-69% = +++)	–
–	388 (SPSVSQLSVL; listed as Homo sapiens) [compound 388]	++++ (>=70% = ++++)	–
+++ (>50 = +++)	33 (LPRGLSPARQL; listed as Homo sapiens) [compound 33]	–	++ (20%-49% = ++)
++++ (>75% = ++++)	21 (APSRLLEL; listed as Homo sapiens) [compound 21]	–	+ (<20% = +)
++++ (>75% = ++++)	5 (LPSLSHCSQL; listed as Homo sapiens) [compound 5]	–	++ (20%-49% = ++)
++++ (>75% = ++++)	61 (LPRIPFSTF; listed as Homo sapiens) [compound 61]	–	++ (20%-49% = ++)

Peptide exchange (HLA-B*07)	Substance	Wells positive [%] (CD8+ T cells; Table 10a)	Wells positive [%] (CD8+ T cells; Table 10b)
++++ (>75% = ++++)	59 (KPRTIYSSL; listed as Homo sapiens) [compound 59]	–	+ (<20% = +)
++++ (>75% = ++++)	64 (VPRPIFSQLYL; listed as Homo sapiens) [compound 64]	–	+++ (50%-69% = +++)
–	398 (SPASRSISL; listed as Homo sapiens) [compound 398]	+ (<20% = +)	–
–	415 (LPSDSHFKITF; listed as Homo sapiens) [compound 415]	++ (20%-49% = ++)	–
++++ (>75% = ++++)	6 (LPLNSSTSL; listed as Homo sapiens) [compound 6]	–	+ (<20% = +)
–	411 (IPNWARQDL; listed as Homo sapiens) [compound 411]	++++ (>=70% = ++++)	–
–	445 (RPAATAVISL; listed as Homo sapiens) [compound 445]	+ (<20% = +)	–
–	393 (APAAWLRSA; listed as Homo sapiens) [compound 393]	+++ (50%-69% = +++)	–
–	425 (YPRGNHWAVGHL; listed as Homo sapiens) [compound 425]	++ (20%-49% = ++)	–
–	418 (RPMTPTQIGPSL; listed as Homo sapiens) [compound 418]	+ (<20% = +)	–
++++ (>75% = ++++)	17 (SPAAPLSPASSL; listed as Homo sapiens) [compound 17]	–	+ (<20% = +)
–	437 (FPYPYAERL; listed as Homo sapiens) [compound 437]	+++ (50%-69% = +++)	–
–	420 (SPRWLPVSL; listed as Homo sapiens) [compound 420]	++++ (>=70% = ++++)	–
–	408 (YPKDIYSSF; listed as Homo sapiens) [compound 408]	++ (20%-49% = ++)	–
–	390 (SPRMSGLLSQT; listed as Homo sapiens) [compound 390]	+++ (50%-69% = +++)	–
–	405 (LPFDGPGGIL; listed as Homo sapiens) [compound 405]	++++ (>=70% = ++++)	–
–	414 (KPSESIYSAL; listed as Homo sapiens) [compound 414]	++ (20%-49% = ++)	–
–	440 (YPRTITPGM; listed as Homo sapiens) [compound 440]	+ (<20% = +)	–
++++ (>75% = ++++)	122 (KPRTPFTTAQLL; listed as Homo sapiens) [compound 122]	–	–
++++ (>75% = ++++)	452 (QPVKKNTL; listed as Homo sapiens) [compound 452]	–	–
++++ (>75% = ++++)	189 (QPQCSTHIL; listed as Homo sapiens) [compound 189]	–	–
++++ (>75% = ++++)	380 (SPYPGSAAF; listed as Homo sapiens) [compound 380]	–	–
++ (>20% = ++)	158 (SVPVATVEL; listed as Homo sapiens) [compound 158]	–	–
++++ (>75% = ++++)	187 (APPPPPPPF; listed as Homo sapiens) [compound 187]	–	–
++++ (>75% = ++++)	73 (LPVSSPVTL; listed as Homo sapiens) [compound 73]	–	–
++++ (>75% = ++++)	334 (YPLSLALHF; listed as Homo sapiens) [compound 334]	–	–
